Our source for the MIC values is patent US20240425464A1, “Substituted Monohydrazides as Potent Antifungal Agents” (University of Kentucky Research Foundation, priority 2023, published 2024).

In brackets after ≈: the same amount, converted by molar mass. Where two headings read alike, the source gives them in different places.

Holding throughout (assay): MIC determination by in vitro antifungal assay
Common to all, as to format: cell-based, Candida auris

In assay [1] the test system is C. auris strain AR Bank #390 (L). In a few lines:
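Compounds serially double-diluted over 0.06-31.3 µg/mL against yeast inoculum set at OD600 0.12 (~1×10^6 CFU/mL) and diluted 1:100. Medium RPMI 1640 with 0.165 M MOPS, pH 7.0; growth at 35° C.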

Another assay relates to C. auris AR Bank #389. In short, it runs like this:
(§1)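 Growing yeast cultures are diluted into RPMI 1640, re-adjusted to OD600 0.12, and further diluted 1:100. All growth takes place at 35° C in medium buffered with 0.165 M MOPS to pH 7.0.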

In another assay the test system is C. auris AR Bank #382. In a few lines: as §1
The subject of a further assay is C. auris AR Bank #383. In short, it runs like this: as §1
The test system of the next assay is C. auris AR Bank #388. In a few lines: as §1
In the next assay the test system is C. auris AR Bank #381. In short, it runs like this: as §1
The subject of the next assay is C. auris AR Bank #385. In a few lines: as §1
The next assay has as its system C. auris AR Bank #386. In short, it runs like this: as §1
In a further assay the test system is C. auris AR Bank #387. In a few lines: as §1
The mark [2] stands for this setting: Candidozyma auris, C. auris AR Bank # 390 (L) (Table 2B), read-out: MIC.
[3] abbreviates: Candidozyma auris, strain L = C. auris AR Bank # 0390 (Tables 1A/1B), read-out: MIC.
Where [4] appears, read: Candidozyma auris, C. auris AR Bank # 389 (Table 2B), read-out: MIC.
Setting [5] is: Candidozyma auris, C. auris AR Bank # 382 (Table 2B), read-out: MIC.
Where [6] appears, read: Candidozyma auris, C. auris AR Bank # 383 (Table 2B), read-out: MIC.
The mark [7] stands for this setting: Candidozyma auris, C. auris AR Bank # 388 (Table 2B), read-out: MIC.
[8] abbreviates: Candidozyma auris, C. auris AR Bank # 381 (Table 2B), read-out: MIC.
[9] abbreviates: Candidozyma auris, C. auris AR Bank # 385 (Table 2B), read-out: MIC.
[10] abbreviates: Candidozyma auris, C. auris AR Bank # 386 (Table 2B), read-out: MIC.
[11] abbreviates: Candidozyma auris, C. auris AR Bank # 387 (Table 2B), read-out: MIC.
The mark [12] stands for this setting: C. auris AR Bank # 390 (L) (Table 2B).
Where [13] appears, read: strain L = C. auris AR Bank # 0390 (Tables 1A/1B).
The mark [14] stands for this setting: C. auris AR Bank # 389 (Table 2B).
Setting [15] is: C. auris AR Bank # 382 (Table 2B).
Setting [16] is: C. auris AR Bank # 383 (Table 2B).
The mark [17] stands for this setting: C. auris AR Bank # 388 (Table 2B).
The mark [18] stands for this setting: C. auris AR Bank # 381 (Table 2B).
Where [19] appears, read: C. auris AR Bank # 385 (Table 2B).
Setting [20] is: C. auris AR Bank # 386 (Table 2B).
[21] abbreviates: C. auris AR Bank # 387 (Table 2B).

As for `O=C(NNc1ccc(F)cc1)c1cccc(F)n1` [Compound 5d], the MIC in [1] (setting [2]) is 1.95 µg/mL (≈ 7.82 µM); in assay [1] (setting [3]), 0.98 µg/mL (≈ 3.93 µM); in the assay on C. auris AR Bank #389 (setting [4]) it was 0.98 µg/mL (≈ 3.93 µM); with C. auris AR Bank #382 (setting [5]), 0.98 µg/mL (≈ 3.93 µM); with C. auris AR Bank #383 (setting [6]) it was 1.95 µg/mL (≈ 7.82 µM); with C. auris AR Bank #388 (setting [7]), 0.49 µg/mL (≈ 1.97 µM). The MIC with C. auris AR Bank #381 (setting [8]) was 0.98 µg/mL (≈ 3.93 µM); in the assay with C. auris AR Bank #385 (setting [9]), 0.49 µg/mL (≈ 1.97 µM); in the assay with C. auris AR Bank #386 (setting [10]), 0.98 µg/mL (≈ 3.93 µM); in the assay on C. auris AR Bank #387 (setting [11]), 0.49 µg/mL (≈ 1.97 µM).
Take `O=C(NNc1ccc(F)cc1F)c1ncc(F)cc1F` [Compound 7g]: the MIC in [1] (setting [2]) was determined as 7.8 µg/mL (≈ 27.3 µM); in assay [1] (setting [3]), 1.95 µg/mL (≈ 6.84 µM); in the assay with C. auris AR Bank #389 (setting [4]), 3.9 µg/mL (≈ 13.7 µM); in the assay with C. auris AR Bank #382 (setting [5]), 1.95 µg/mL (≈ 6.84 µM); with C. auris AR Bank #383 (setting [6]), 3.9 µg/mL (≈ 13.7 µM); in the assay on C. auris AR Bank #388 (setting [7]) it was 3.9 µg/mL (≈ 13.7 µM). For the same compound, the MIC in the assay on C. auris AR Bank #381 (setting [8]) was 3.9 µg/mL (≈ 13.7 µM); in the assay with C. auris AR Bank #385 (setting [9]), 0.98 µg/mL (≈ 3.44 µM); with C. auris AR Bank #386 (setting [10]) it was 1.95 µg/mL (≈ 6.84 µM); in the assay with C. auris AR Bank #387 (setting [11]), 1.95 µg/mL (≈ 6.84 µM).
Consider `O=C(NNc1ccc(F)cc1)c1nc(F)ccc1F` [Compound 8d], for which the MIC was 1.95 µg/mL (≈ 7.3 µM) in [1] (setting [2]); 0.98 µg/mL (≈ 3.67 µM) in assay [1] (setting [3]); 0.98 µg/mL (≈ 3.67 µM) in the assay with C. auris AR Bank #389 (setting [4]); 0.98 µg/mL (≈ 3.67 µM) in the assay on C. auris AR Bank #382 (setting [5]); 0.98 µg/mL (≈ 3.67 µM) in the assay with C. auris AR Bank #383 (setting [6]); 0.49 µg/mL (≈ 1.83 µM) with C. auris AR Bank #388 (setting [7]). The MIC in the assay with C. auris AR Bank #381 (setting [8]) came to 0.98 µg/mL (≈ 3.67 µM); in the assay on C. auris AR Bank #385 (setting [9]), 0.24 µg/mL (≈ 0.898 µM); with C. auris AR Bank #386 (setting [10]), 0.98 µg/mL (≈ 3.67 µM); with C. auris AR Bank #387 (setting [11]), 0.49 µg/mL (≈ 1.83 µM).
Take `O=C(NNc1ccc(Cl)cc1)c1ncc(F)cc1F` [Compound 7e]: the MIC was determined as 7.8 μg/mL^−1 in assay [1] (setting [12]); 7.8 μg/mL^−1 in [1] (setting [13]); 7.8 μg/mL^−1 against C. auris AR Bank #389 (setting [14]); 15.6 μg/mL^−1 with C. auris AR Bank #382 (setting [15]); 3.9 μg/mL^−1 in the assay with C. auris AR Bank #383 (setting [16]); 7.8 μg/mL^−1 against C. auris AR Bank #388 (setting [17]). Besides, the MIC against C. auris AR Bank #381 (setting [18]) was 7.8 μg/mL^−1; against C. auris AR Bank #385 (setting [19]), 7.8 μg/mL^−1; with C. auris AR Bank #386 (setting [20]), 15.6 μg/mL^−1; in the assay with C. auris AR Bank #387 (setting [21]) it was 15.6 μg/mL^−1.
For `O=C(NNc1cc(Cl)cc(Cl)c1)c1ccccn1` [Compound 2j], the MIC in assay [1] (Candidozyma auris, C. auris AR Bank #390 (L), read-out: MIC) stood at 3.9 µg/mL (≈ 13.8 µM); in assay [1] (setting [3]), 1.95 µg/mL (≈ 6.91 µM); in the assay with C. auris AR Bank #389 (Candidozyma auris, C. auris AR Bank #389, read-out: MIC), 1.95 µg/mL (≈ 6.91 µM); with C. auris AR Bank #382 (Candidozyma auris, C. auris AR Bank #382, read-out: MIC), 0.98 µg/mL (≈ 3.47 µM); in the assay on C. auris AR Bank #383 (Candidozyma auris, C. auris AR Bank #383, read-out: MIC), 1.95 µg/mL (≈ 6.91 µM); in the assay on C. auris AR Bank #388 (Candidozyma auris, C. auris AR Bank #388, read-out: MIC), 3.9 µg/mL (≈ 13.8 µM). The MIC in the assay with C. auris AR Bank #381 (Candidozyma auris, C. auris AR Bank #381, read-out: MIC) worked out at 3.9 µg/mL (≈ 13.8 µM); with C. auris AR Bank #385 (Candidozyma auris, C. auris AR Bank #385, read-out: MIC), 1.95 µg/mL (≈ 6.91 µM); in the assay with C. auris AR Bank #386 (Candidozyma auris, C. auris AR Bank #386, read-out: MIC), 1.98 µg/mL (≈ 7.02 µM); with C. auris AR Bank #387 (Candidozyma auris, C. auris AR Bank #387, read-out: MIC), 0.98 µg/mL (≈ 3.47 µM).
In the case of `O=C(NNc1cccc(Cl)c1)c1ccc(F)cc1F` [Compound 1b], the MIC is 7.8 µg/mL (≈ 27.6 µM) in assay [1] (setting [2]); 7.8 µg/mL (≈ 27.6 µM) in assay [1] (setting [3]); 3.9 µg/mL (≈ 13.8 µM) in the assay with C. auris AR Bank #389 (setting [4]); 3.9 µg/mL (≈ 13.8 µM) in the assay with C. auris AR Bank #382 (setting [5]); 15.6 µg/mL (≈ 55.2 µM) with C. auris AR Bank #383 (setting [6]); 3.9 µg/mL (≈ 13.8 µM) in the assay with C. auris AR Bank #388 (setting [7]). Further, the MIC in the assay with C. auris AR Bank #381 (setting [8]) was found to be 3.9 µg/mL (≈ 13.8 µM); in the assay with C. auris AR Bank #385 (setting [9]) it was 3.9 µg/mL (≈ 13.8 µM); in the assay on C. auris AR Bank #386 (setting [10]), 7.8 µg/mL (≈ 27.6 µM); with C. auris AR Bank #387 (setting [11]), 7.8 µg/mL (≈ 27.6 µM).
In the case of `O=C(NNc1ccc(Cl)cc1)c1ccc(F)cn1` [Compound 3e], the MIC amounted to 7.8 μg/mL^−1 in [1] (setting [12]); 7.8 μg/mL^−1 in [1] (setting [13]); 7.8 μg/mL^−1 with C. auris AR Bank #389 (setting [14]); 7.8 μg/mL^−1 against C. auris AR Bank #382 (setting [15]); 3.9 μg/mL^−1 against C. auris AR Bank #383 (setting [16]); 7.8 μg/mL^−1 against C. auris AR Bank #388 (setting [17]). Moreover, the MIC against C. auris AR Bank #381 (setting [18]) was determined as 7.8 μg/mL^−1; against C. auris AR Bank #385 (setting [19]), 1.95 μg/mL^−1; with C. auris AR Bank #386 (setting [20]) it was 7.8 μg/mL^−1; against C. auris AR Bank #387 (setting [21]), 7.8 μg/mL^−1.
In the case of `COc1cccc(NNC(=O)c2ccc(F)cn2)c1` [Compound 3c], the MIC in [1] (setting [12]) worked out at 3.9 μg/mL^−1; in assay [1] (setting [13]), 0.98 μg/mL^−1; against C. auris AR Bank #389 (setting [14]), 0.98 μg/mL^−1; in the assay with C. auris AR Bank #382 (setting [15]), 0.49 μg/mL^−1; against C. auris AR Bank #383 (setting [16]), 0.98 μg/mL^−1; against C. auris AR Bank #388 (setting [17]), 0.98 μg/mL^−1. Also, the MIC turned out to be 0.98 μg/mL^−1 in the assay on C. auris AR Bank #381 (setting [18]), 0.49 μg/mL^−1 with C. auris AR Bank #385 (setting [19]), 0.98 μg/mL^−1 with C. auris AR Bank #386 (setting [20]) and 0.98 μg/mL^−1 against C. auris AR Bank #387 (setting [21]).
